Experimental data taken from patent publication US9725675B2, “Lipid-soluble formulations containing mixtures of antioxidants” (KEMIN INDUSTRIES, INC., priority 2003, dated 2017).
Several values for one entry are separate records, joined by “and”; a condition that tells them apart may be missing. Equal values may be shown once.

Assay: Oil Stability Index (OSI) induction time, AOCS Official Method Cd 12b-92, at 98° C.
Conditions: for OSI induction time (h) of formulations based on single antioxidants: 250 ppm of antioxidant formulation (20% active antioxidant in the carrier of Formulation 1), soybean oil, replicates 1-3; for OSI induction time of soybean oil stabilized with synthetic antioxidants: single antioxidants directly dissolved in soybean oil, 98° C., control 14.8 h
Excerpt: In order to evaluate the oxidative stability of an oil or fat sample an accelerated method is developed to speed up the oxidation process. […] This method is particularly suited to evaluate the effect of antioxidant stabilization of oils and fats.
Before oils and fats start to oxidize a resistance has to be overcome, after which the oxidation accelerates and becomes very rapid. The length of time before this rapid acceleration of oxidation is a measure of the resistance to oxidation and is commonly referred to as the ‘induction period’. In the Oil Stability Index (OSI method) the oxidative stability and the effect of antioxidant stabilization of oils and fats is determined. A stream of purified air is passed through a sample of oil, which is held in a thermostatic bath. In this experimental test the OSI was carried out at a temperature of 98° C. The effluent air from the oil or fat sample is then bubbled through a vessel containing deionized water. The conductivity of the water is continually monitored. The effluent air contains the volatile organic acids formed upon oxidizing the oil. The Oil Stability Index is defined as the point of maximum change of the rate of oxidation, or mathematically as the second derivative of the conductivity curve. As a consequence the induction point is a measure for the oxidative stability of the oil or fat system. The higher the induction point the higher the oxidative stability of the oil.

SMILES | OSI induction time (h) of formulations based on single antioxidants | OSI induction time of soybean oil stabilized with synthetic antioxidants (250 ppm) [h] | OSI induction time of soybean oil stabilized with synthetic antioxidants (500 ppm) [h] | OSI induction time of soybean oil stabilized with synthetic antioxidants (1000 ppm) [h]
COc1ccc(O)c(C(C)(C)C)c1 [BHA, butylated hydroxyanisole] | 14.0 h and 14.2 h and 14.5 h | 14.0 | 15.5 | 21.5
Cc1cc(C(C)(C)C)c(O)c(C(C)(C)C)c1 [BHT, butylated hydroxyltoluene] | 15.5 h and 15.4 h and 15.0 h | 17.9 | 20 | 
O=C(O)c1cc(O)c(O)c(O)c1 [Gallic acid, gallic acid] | 21.6 h and 20.7 h and 22.0 h | 30.6 | 41.8 | 47.4
CCCCCCCCOC(=O)c1cc(O)c(O)c(O)c1 [Octyl gallate, octyl gallate] | 19.3 h (2×) and 19.5 h | 29.6 | 38.6 | 47.6
CCCOC(=O)c1cc(O)c(O)c(O)c1 [Propyl gallate, propyl gallate] | 19.5 h and 21.5 h and 20.1 h | 35.8 | 44.5 | 53.1
